{"source": "paper PMC8749556", "about": "“Functional Characterization of Melanocortin-3 Receptor in a Hibernating Cavefish Onychostoma macrolepis” (Animals : an Open Access Journal from MDPI, 2021)", "key": {"omMc3r [1]": {"biological_target": "omMc3r", "assay": "cAMP signaling, CRE luciferase reporter (pGL4.29) assay", "type": "cell-based, Onychostoma macrolepis", "details": "pGL4.29 (CRE) luciferase reporter", "experimental": "(§1) In order to test whether omMc3r can be activated by ligands in vitro, we sub-cloned the coding region of omMc3r into pcDNA3.1 (+) vector (Invitrogen, Carlsbad, CA, USA) for subsequent transfection of cells. The constructed vector was further verified by sequencing before use.\n(§2) Human embryonic kidney (HEK293T) cells were cultured in Dulbecco modified Eagle’s medium (DMEM, Invitrogen, Carlsbad, CA, USA) supplemented with 10% fetal bovine serum (FBS, Biological Industries, Kibbutz Beit Haemek, Israel) and placed in a humid environment containing 5% CO2 at 37 °C. Cells were passaged every 2 days.\n(§3) This study employed the luciferase reporter system to examine whether the four ligands can activate downstream signals through omMc3r. The luciferase reporter vector pGL4.29 and pGL4.33 of Promega (Madison, WI, USA) contain cAMP respose element (CRE) and serum response element (SRE) in their promoter regions, which can monitor the activation of cAMP and MAPK/ERK signaling pathways, respectively. The brief operating procedure was as follows: the HEK293T cells were passaged to a 6-well plate 24 h before transfection. […] An Infinite F200 microplate reader (Tecan, Männedorf, Switzerland) was used to measure the luciferase activities. […]"}, "omMc3r [2]": {"biological_target": "omMc3r", "assay": "MAPK/ERK (ERK1/2) signaling, SRE luciferase reporter (pGL4.33) assay", "type": "cell-based, Onychostoma macrolepis", "experimental": "as §1, §2, §3"}, "Mc3r of spiny dogfish": {"system": "Mc3r of spiny dogfish", "details": "ref [3]; cited from earlier work"}, "Mc3r of channel catfish": {"system": "Mc3r of channel catfish", "details": "ref [12]; cited from earlier work"}, "Human MC3R": {"system": "Human MC3R", "details": "ref [3]; cited from earlier work"}}, "note": "“Also recorded” adds a separate entry of the source."}
{"substance": "β-melanocyte-stimulating hormone [β-MSH]", "values": [{"measurement": "EC50", "setting": "omMc3r [1]; HEK293T cells transiently transfected with omMc3r plasmid, ligand 6 h in serum-free DMEM, fold change vs serum-free DMEM, nonlinear regression, mean ± SEM (n = 3, figure legend: mean (SD) of three independent experiments), read-out: EC50, cAMP Response", "result": "270 ± 4.95", "unit": "nM"}, {"measurement": "activation of cAMP signaling through omMc3r (in words)", "setting": "omMc3r [1]; HEK293T cells, ligand 6 h", "result": "can all activate the cAMP and MAPK/ERK signaling pathway; also recorded: can activate cAMP and MAPK/ERK signaling pathways in a dose-dependent manner; also recorded: could potently activate the Gαs-cAMP and MAPK/ERK signaling pathway through omMc3r; also recorded: could activate cAMP and the MAPK/ERK signaling through omMc3r with different degrees of potency"}, {"measurement": "EC50", "setting": "omMc3r [2]; HEK293T cells co-transfected with omMc3r plasmid and pGL4.33 (SRE) luciferase reporter, ligand 6 h in serum-free DMEM, fold change vs serum-free DMEM, nonlinear regression, mean ± SEM (n = 3, figure legend: mean (SD) of three independent experiments), read-out: EC50, ERK1/2 Response", "result": "4850 ± 10.7", "unit": "nM"}, {"measurement": "activation of MAPK/ERK signaling through omMc3r (in words)", "setting": "omMc3r [2]; HEK293T cells, pGL4.33 (SRE) luciferase reporter, ligand 6 h", "result": "can all activate the cAMP and MAPK/ERK signaling pathway; also recorded: can activate cAMP and MAPK/ERK signaling pathways in a dose-dependent manner; also recorded: could potently activate the Gαs-cAMP and MAPK/ERK signaling pathway through omMc3r; also recorded: could activate cAMP and the MAPK/ERK signaling through omMc3r with different degrees of potency"}]}
{"substance": "adrenocorticotropin [ACTH]", "values": [{"measurement": "ligand affinity of spiny dogfish Mc3r (in words)", "setting": "Mc3r of spiny dogfish", "result": "highest affinity"}, {"measurement": "ligand affinity of channel catfish Mc3r (in words)", "setting": "Mc3r of channel catfish", "result": "highest affinity"}]}
{"substance": "γ-melanocyte-stimulating hormone [γ-MSH]", "values": [{"measurement": "ligand preference of human MC3R (in words)", "setting": "Human MC3R", "result": "unique preference"}]}
